The test system of one data set is Parathormon. Kind of data set: Plasma levels of parathormone and Ca2+ in Ca2+-infused anaesthetised rats after i.v. injection. The data set is classed as in vivo, Wistarratten. Conditions: for Stimulierung des PTH: Ratten. An excerpt: (§1) In Ratten wurde durch eine Ca^2+-Gluconat-Infusion der Plasma-Ca^2+-Spiegel erhöht. Durch diese Infusion wird der PTH-Spiegel suppremiert (The New England J. Med. 307, 1982, S. 226 - 228). Eine Bolusinjektion der Gonadoliberinagonisten erhöhte jedoch signifikant den PTH-Spiegel gegenüber den Kontrollen und potenzierte das Plasma-Ca^2+. Das 30 Minuten nach der Injektion der Gonadoliberinagonisten erhöhte PTH bewirkte nach 60 Minuten einen signifikanten Serum-Ca^2+-Anstieg. Daß diese Beeinflußung des Plasma-Ca^2+-Spiegels durch endogenes PTH oder PTH selbst einen Einfluß auf den Blutdruck hat, wurde an einer Frau mit zu hohem Blutdruck überprüft. Nach einmaliger intranasaler Gabe von 100 mcg Gonadoliberin, was bei einer Resorptionsrate von 2 - 5 % also nur etwa 2 - 5 mcg resorbierten Gonadoliberins entspricht, konnte der erhöhte Blutdruck 8 Stunden lang stark gesenkt werden.
Zwei Gruppen von je 31 Wistarratten wurden mit Pentobarbital (45 mg/kg i.p.) narkotisiert. Man entnahm von allen Tieren eine Blutprobe (Ausgangswert). […] Nach 30, 60, 90, 120 und 180 Minuten wurde ein Teil der Tiere getötet und entblutet. Das Blutserum wurde auf Ca^2+ und Parathormon untersucht.
In beiden-Figuren ist bei den einzelnen Meßpunkten die Anzahl n der Messungen sowie die Standardabweichung des Meßwertes (graphisch) angegeben.

A short description of data set [1]: Blood pressure lowering in a hypertensive person after intranasal dosing. The data set is classed as in vivo, Mensch. Conditions: for systolischer Blutdruck: hypertensive person, 100 µg intranasal, baseline etwa 150 mm Hg.
Description: as §1
Eine hypertensive, 48 Jahre alte Frau, deren Bluthochdruck mit ß-Blockern behandelt wird, setzte ihre Be-.handlung am Versuchstag aus. Versuchsbeginn: 17.00 Uhr.
Der systolische Blutdruck von etwa 150 mm Hg sank nach intranasaler Gabe von 100 µg Gonadoliberin innerhalb von 30 Minuten auf etwa 125 mm Hg, blieb 90 Minuten bei 125 mm Hg und stieg dann für die nächsten 4 Stunden auf 130 mm Hg. Nach einer 8-stündigen Bettruhe, während der die Versuchsperson ausgezeichnet schlief, war der Blutdruck auf etwa 137 mm Hg gestiegen.

Data set [2] in a line: Treatment of muscle pain (McArdle-Erkrankung) in a person, intranasal dosing. The data set is classed as in vivo, Mensch. From the text:
[…] mit starken Muskelschmerzen am Oberarm (McArdle-Erkrankung) gab man 100 mcg Gonadoliberin intra- nasal. Die starken Dauerschmerzen verschwanden nach etwa 15 Minuten. Am Anfang der Behandlung wurde mehrmals täglich (3 mal), später 2 mal und dann nur noch einmal täglich appliziert um einer Tachyphylaxie vorzubeugen. […] Der anfangs sehr schwache Blutdruck der Patientin von 90/60 wurde interessanterweise nicht weiter gesenkt, sondern leicht erhöht, so daß er sich während der Therapie auf 110/65 einpendelte. Diese kleinen Gonadoliberindosen wirken also nicht generell blutdrucksenkend ', sondern können auch bei niedrigem Blutdruck blutdruckerhöhend wirken.
Eine Frau, 46 Jahre alt, hatte starke Schmerzen im Oberarm. Der Arm konnte nicht vom Körper weg bewegt werden. Nach einer intranasalen Applikation von 100 µg Gonadoliberin war der Dauerschmerz in Ruhehaltung verschwunden. Der sehr schwache Blutdruck von 90/60 stieg während der Behandlung mit Gonadoliberin auf 110/65. Am ersten Tag wurde insgesamt 3 mal, am zweiten und dritten Tag 2 mal und am vierten und folgenden Tagen nur noch einmal täglich am Morgen therapiert. Im Lauf der Therapie wurden auch die Bewegungsschmerzen weniger und der Arm konnte wieder normal bewegt werden.

Data set [3] in a line: Intranasal absorption of Gonadoliberin. Format: in vivo, Mensch. Conditions: intranasal dose of 100 mcg, calculated from the Resorptionsrate.
The conditions of data set [4]: je nach Test; literature (Vitamins and Hormons 38, 1980; J. Med. Chem. 25, 1982); cited from earlier work.
The subject of another data set is Plasma-Glucose. To be noted: Kaninchen, Glucosebolus 500 mg/kg i.v.; 5 ng/kg i.v.; after 70 - 90 Minuten; Verum-Gruppe vs Placebo-Gruppe.
The mark [5] stands for this setting: person with high blood pressure, single intranasal dose of 100 mcg.

“Also recorded” adds a separate entry of the source.

Description for Plasma-Glucose: Der Einfluß auf den Blutzucker. wurde zunächst an Kaninchen überprüft. Kaninchen wurden zur Hemmung des endogen Glucagons mit einem Glucosebolus versehen.
Je 3 wachen Kaninchen gab man einen Glucosebolus (500 mg/ kg i.v.). […] Nach 10, 30, 40, 50, 60, 70, 80 und 90 Minuten wurde Blut abgenommen und daraus die Blutglucose bestimmt.
Bei den einzelnen Meßpunkten ist jeweils graphisch die Standardabweichung des Meßwertes angegeben (n ist jeweils 3).

Consider `CC(C)C[C@H](NC(=O)CNC(=O)[C@H](Cc1ccc(O)cc1)NC(=O)[C@H](CO)NC(=O)[C@H](Cc1c[nH]c2ccccc12)NC(=O)[C@H](Cc1cnc[nH]1)NC(=O)[C@@H]1CCC(=O)N1)C(=O)N[C@@H](CCCNC(=N)N)C(=O)N1CCC[C@H]1C(=O)NCC(N)=O` [Gonadoliberin], for which, in the data set on Parathormon (dose 50 ng/kg), the “Stimulierung des PTH” value is “stimulieren”. Also, the “systolischer Blutdruck” value is roughly 137 mm Hg in data set [1] (after a subsequent 8-hour bed rest), 125 mm Hg in data set [1] (maintained for 90 Minuten after the fall), 130 mm Hg in data set [1] (the following 4 Stunden) and roughly 125 mm Hg in data set [1] (within 30 Minuten). Moreover, in data set [1] (setting [5]), the “duration of blood pressure lowering” value was found to be 8 Stunden. Moreover, the “erhöhter Blutdruck” value in data set [1] (setting [5]) is recorded as “stark gesenkt”. Moreover, the “time until the starke Dauerschmerzen disappeared” value in data set [2] (person with muscle pain in the upper arm (McArdle-Erkrankung), 100 mcg intranasal) is listed as roughly 15 Minuten. In addition, the “Bewegungsschmerzen / movement of the arm” value in data set [2] (person with muscle pain, 100 µg intranasal 3 to 1 times daily, in the course of therapy) was “ohne Schmerzen bewegt; also recorded: weniger”. Moreover, in data set [2] (person with muscle pain, 100 µg intranasal, during therapy, baseline 90/60), the Blutdruck is given as 110/65. In addition, in data set [2] (person, upper arm pain, 100 µg intranasal), the “Dauerschmerz in Ruhehaltung” value was “verschwunden”. Also, the “resorbiertes Gonadoliberin” value in data set [3] is 2 to 5 µg.
Consider `CC(C)C[C@H](NC(=O)[C@@H](Cc1ccc2ccccc2c1)NC(=O)[C@H](Cc1ccc(O)cc1)NC(=O)[C@H](CO)NC(=O)[C@H](Cc1c[nH]c2ccccc12)NC(=O)[C@H](Cc1cnc[nH]1)NC(=O)[C@@H]1CCC(=O)N1)C(=O)N[C@@H](CCCNC(=N)N)C(=O)N1CCC[C@H]1C(=O)NCC(N)=O` [[D-3-(2-Naphthyl)-Ala^6] Gonadoliberin], for which the “Wirkung relative to Gonadoliberin (mal stärker)” value in data set [4] was “noch höhere Aktivitäten”.
For “[D-Ser(Bu^t) ^6] Gonadoliberin-(1-9)-nonapeptid-ethylamid [Buserelin]”, the “Stimulierung des PTH” value in the data set on Parathormon (dose 5 ng/kg) is listed as “stimulieren”. The “Parathormon im Blutserum” value in the data set with Parathormon (Wistarratten, Ca2+-Infusion 30 mg/kg/h, 5 ng/kg i.v., after 30 Minuten, Verum-Gruppe vs Placebogruppe) is on record as “signifikant an”. Also, the “Ca^2+-Spiegel im Blutserum” value in the data set on Parathormon (Wistarratten, Ca2+-Infusion 30 mg/kg/h, 5 ng/kg i.v., after 60 Minuten, Verum-Gruppe vs Placebogruppe) is reported as “deutlich erhöht”. Moreover, in the data set with Plasma-Glucose, the Blutglucosewerte result is on record as “signifikant erhöht”.
In the case of `Cc1cc(C)c(C[C@@H](NC(=O)[C@H](Cc2ccc(O)cc2)NC(=O)[C@H](CO)NC(=O)[C@H](Cc2c[nH]c3ccccc23)NC(=O)[C@H](Cc2cnc[nH]2)NC(=O)[C@@H]2CCC(=O)N2)C(=O)N[C@@H](CC(C)C)C(=O)N[C@@H](CCCNC(=N)N)C(=O)N2CCC[C@H]2C(=O)NCC(N)=O)c(C)c1` [[D-3-(2.4.6.Trimethylphenyl)-Ala^6]-Gonadoliberin], the “Wirkung relative to Gonadoliberin (mal stärker)” value in data set [4] is “noch höhere Aktivitäten”.
